Results published in US20250073223A1, “TARGETED NANOCARRIERS FOR SYSTEMIC DELIVERY OF IRAK4 INHIBITORS TO INFLAMED TISSUES” (Oregon State University, priority 2023, published 2025).

Assays:
[1] = tested on: mice with DSS-induced colitis; assay: DSS-induced colitis efficacy (colon length, body weight, colon damage); type: in vivo, C57BL/6 mice
Procedure: To evaluate the anti-inflammatory action of the developed VCAM1-IRAK4 NC, mice were administered with 5% DSS in drinking water for 7 days and injected IV with the VCAM1-targeted nanocarriers loaded with IRAK4 inhibitor (23 mg kg^−1) on day 0, 2, 4, and 6 of DSS treatment initiation (Y. Lec, K. Sugihara, M. G. Gillilland, 3rd, S. Jon, N. Kamada, J. J. Moon, Nat. Mater. 2020, 19, 118). […] A healthy control group without DSS administration and a DSS-induced colitis group without the injection of VCAM1-IRAK4 NC were also prepared. […] Pharmacother. 2022, 153, 113459).
In vivo evaluation of VCAM1-IRAK4 NC in mice with DSS-induced colitis. […] To evaluate the accumulation of VCAM1-targeted nanocarriers in inflamed tissue, the shaved mice with induced colitis were injected IV with SiNc-loaded IRAK4 NC and VCAM1-IRAK4 NC, and NIR fluorescence images of the excised colons and major organs were recorded 24 hours post-administration. The fluorescence images were obtained using a Pearl Impulse fluorescence imaging system (LI-COR, Lincoln, NE) and the mean fluorescence intensity of region of interest was obtained using Pearl Impulse Software (LI-COR, Lincoln, NE). […] Colon length without the cecum was measured, and colon tissues were gently washed with PBS. […] NucBlue™ Fixed Cell ReadyProbes™ Reagent (ThermoFisher Scientific, Waltham, MA, USA) was used to stain the nuclei. […]

[2] = cited from earlier work

Structure (SMILES): CC[C@@H]1[C@H](F)C(=O)N[C@@H]1COc1nccc2cc(C(N)=O)c(OC)cc12 [PF-06650833, zimlovisertib]
- average colon length ([1]; free drug in 60% saline, 30% PEG400, 10% DMSO, 23 mg kg^−1, 4 IV injections, healthy 5.97±0.18, DSS saline 4.87±0.12 (FIG. 15A)): 4.74±0.35 cm
- therapeutic effect on colitis ([1]; free drug, 23 mg kg^−1, 4 IV injections every 2 days): no noticeable therapeutic effect
- absolute oral bioavailability ([2]; oral): low
- dose-limiting side effects ([2]; two phase I clinical trials): no dose-limiting side effects were observed
- tolerability ([2]; two phase I clinical trials): well tolerated
